Experimental findings from patent publication US5922697A, “Compounds, compositions and methods for inhibiting the binding of proteins containing an SH2 domain to cognate phosphorylated proteins” (Warner-Lambert Company, priority 1998, dated 1999) are described below.

In assay [1] the target is T1, p85(C) SH2-GST binding to PDGF receptor kinase domain (Homo sapiens, UniProt P27986).
T1 construct: S-X-SH2-GST (X=Src, Ab1, Grb2, p85-N, p85-C, Syp-N, and PLCy-C domains)
The assay can be described thus: Inhibition of activated PDGF receptor binding to 35S-SH2 domains: p85(C) SH2-GST. As to conditions: 35S-p85(C) SH2-GST, immobilized PDGF receptor kinase domain, pH 7.5, room temperature, 30 minutes.

The target of assay [2] is T2, Abl SH2-GST binding to PDGF receptor kinase domain (Homo sapiens, UniProt P00519).
T2 construct: S-X-SH2-GST (X=Src, Ab1, Grb2, p85-N, p85-C, Syp-N, and PLCy-C domains)
T2 sequence (P00519 127-217 limits assumed): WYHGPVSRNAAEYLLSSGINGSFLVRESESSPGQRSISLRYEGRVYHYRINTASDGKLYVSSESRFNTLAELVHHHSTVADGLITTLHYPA
The assay can be described thus: Inhibition of activated PDGF receptor binding to 35S-SH2 domains: Abl SH2-GST. The method, then: Inhibition of Activated PDGF Receptor Binding to ^35 S-SH2 Domains
The assay was conducted at room temperature for 30 minutes while continuously inverting the plate. The resultant SH2-GST-PDGF receptor kinase complex was separated from excess ^35 S-SH2-GST protein by vacuum filtration and the amount of bound SH2-GST was determined by scintillation counting. Results are expressed as IC50 values and/or % inhibition at specified concentrations in Table 2 below.

Assay [3] concerns the target T3, Syp(N) SH2-GST binding to PDGF receptor kinase domain (Homo sapiens, UniProt Q06124).
T3 construct: S-X-SH2-GST (X=Src, Ab1, Grb2, p85-N, p85-C, Syp-N, and PLCy-C domains)
The assay can be described thus: Inhibition of activated PDGF receptor binding to 35S-SH2 domains: Syp(N) SH2-GST. As to conditions: 35S-Syp(N) SH2-GST, immobilized PDGF receptor kinase domain, pH 7.5, room temperature, 30 minutes.

The target of assay [4] is T4, PLCγ(C) SH2-GST binding to PDGF receptor kinase domain (Homo sapiens, UniProt P19174).
T4 construct: S-X-SH2-GST (X=Src, Ab1, Grb2, p85-N, p85-C, Syp-N, and PLCy-C domains)
T4 sequence (P19174 668-756 limits assumed): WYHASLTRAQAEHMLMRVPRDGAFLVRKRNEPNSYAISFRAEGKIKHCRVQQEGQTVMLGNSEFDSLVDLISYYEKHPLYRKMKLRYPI
The assay can be described thus: Inhibition of activated PDGF receptor binding to 35S-SH2 domains: PLCγ(C) SH2-GST. As to conditions: 35S-PLCγ(C) SH2-GST, immobilized PDGF receptor kinase domain, pH 7.5, room temperature, 30 minutes.

The target in assay [5] is T5, Grb2 SH2-GST binding to PDGF receptor kinase domain (Homo sapiens, UniProt P62993).
T5 construct: S-X-SH2-GST (X=Src, Ab1, Grb2, p85-N, p85-C, Syp-N, and PLCy-C domains)
T5 sequence (P62993 60-152 limits assumed): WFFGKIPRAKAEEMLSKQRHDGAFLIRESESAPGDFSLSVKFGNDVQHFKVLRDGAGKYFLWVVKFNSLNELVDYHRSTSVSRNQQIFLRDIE
The assay can be described thus: Inhibition of activated PDGF receptor binding to 35S-SH2 domains: Grb2 SH2-GST. As to conditions: 35S-Grb2 SH2-GST, immobilized PDGF receptor kinase domain, pH 7.5, room temperature, 30 minutes.

The test system of another assay is Swiss 3T3 cells. The assay can be described thus: Inhibition of DNA synthesis as monitored by 3H-thymidine uptake. As to conditions: Swiss 3T3 cells stimulated with growth factor (PDGFbb or Fetal Bovine Serum), 24 hours; compound concentration not given. It is filed as cell-based. The method, then:
Inhibition of DNA Synthesis as Monitored by ^3 H-Thymidine Uptake
DNA synthesis occurs when a cell is exposed to Platelet Derived Growth Factor (PDGF). For PDGF-induced DNA synthesis to occur, c-SRC or another member of the SRC gene family is required. The ability of the SRC SH2 inhibitors of the present invention to block PDGF-stimulated DNA synthesis can be assessed using the protocol set forth below.
Swiss 3T3 cells were grown in 12-well plates for 3 days to approximately 50% confluency. The growth media was removed and replaced with 1.0 mL/well of assay buffer (Dulbecco's Modified Eagle Medium containing 0.2% Bovine Serum Albumin), and incubated for 24 hours to arrest growth.
Test compounds (5 μL) were add at 100 times their final concentration. Methyl sulfoxide was used as a control and levels in all wells kept under 1.0% of DMSO. Cells were then stimulated with growth factor (PDGFbb or Fetal Bovine Serum), and allowed to incubate another 24 hours.
During the final 2 hours of treatment, 5 uL of 0.1 μCi/μL ^3 H-thymidine was added to each well (final=0.5 μCi/well)
After incubation the medium was removed by aspiration, and each well was washed twice with ice-cold phosphate buffered saline (0.5 mL/wash). 0.5 mL ice-cold 5% trichloroacetic acid was added to each well and incubated on ice for a minimum 10 minutes. The trichloroacetic acid solution was removed and each well was washed twice with 0.5 mL ice-cold trichloroacetic acid, and then once with ice-cold water (0.5 mL). 0.5 mL of 2% Sodium Dodecyl Sulfate was added to each well to solubilize the cells and allowed to incubate at room temperature for 10-15 minutes. The solubilized cells were transfered to 20 mL scintillation vials. Each well was washed with 0.5 mL of water and combined with the corresponding scintillation vial. 10 mL of Ready-Gel scintillation cocktail was added to each vial and the vials were then counted in a scintillation counter. Results are shown as percent of ^3 H-thymidine uptake relative to control in Table 4 below.

The next assay addresses T6, Src SH2 (Homo sapiens, UniProt P12931).
T6 construct: glutathione-S-transferase(GST)-Src SH2 fusion protein
The assay can be described thus: Inhibition of 125I-phosphopeptide binding to immobilized Src SH2. As to conditions: competitive 125I-phosphopeptide displacement, GST-Src SH2 fusion protein, pH 7.5, room temperature, 20 minutes; read-out: IC50, SRC SH2 Binding. The method, then:
The binding affinities of compounds of the present invention to Src SH2 was determined using a competitive radiolabeled phosphopeptide displacement assay.
Binding was performed at room temperature for 20 minutes while continuously inverting the plate. […] Results are expressed as IC50 values in Table 1 below.

The target of another assay is T7, Abl SH2 (Homo sapiens, UniProt P00519).
T7 construct: glutathione-S-transferase(GST)-Abl SH2 fusion protein
T7 sequence (P00519 127-217 limits assumed): T2 sequence (P00519 127-217 limits assumed)
The assay can be described thus: Inhibition of 125I-phosphopeptide binding to immobilized Abl SH2. As to conditions: competitive 125I-phosphopeptide displacement, GST-Abl SH2 fusion protein, pH 7.5, room temperature, 20 minutes; read-out: IC50, Abl SH2 Binding. The method, then: The binding affinities of compounds of the present invention to Abl SH2 was determined using a competitive radiolabeled phosphopeptide displacement assay. […] Binding was performed at room temperature for 20 minutes while continuously inverting the plate.

T6 sequence (P12931 151-248 limits assumed): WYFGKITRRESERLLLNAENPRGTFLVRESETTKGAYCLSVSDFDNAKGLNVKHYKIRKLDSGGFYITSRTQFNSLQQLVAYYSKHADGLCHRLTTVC
T3 sequence (Q06124 6-102): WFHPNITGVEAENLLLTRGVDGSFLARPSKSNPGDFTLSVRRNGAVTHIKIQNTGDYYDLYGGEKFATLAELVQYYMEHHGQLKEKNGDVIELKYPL
T1 sequence (P27986 624-718 limits assumed): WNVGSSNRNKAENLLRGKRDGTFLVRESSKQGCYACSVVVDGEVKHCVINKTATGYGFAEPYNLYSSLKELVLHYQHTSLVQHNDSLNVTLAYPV

Broadly, the IC50 is the concentration that inhibits the measured activity by half. Turning to `CC(=O)N[C@@H](Cc1ccc(OP(=O)(O)O)cc1)C(=O)NC(C)c1ccc(OCC2CCCCC2)c(C(N)=O)c1` (mixture of isomers) [Example 51, Phosphoric acid mono-(4-{(S)-2-acetylamino-2-[(RS)-1-(3-carbamoyl-4-cyclohexylmethoxy-phenyl)-ethylcarbamoyl]-ethyl}-phenyl) ester], the half-maximal inhibitory concentration (IC50) in assay [1] was over 100 µM; in assay [2], 12.1 µM; in assay [3], about 100 µM; in assay [4] it was over 100 µM; in assay [5] it was about 100 µM.

As for `CC(=O)N[C@@H](Cc1ccc(C(F)(F)P(=O)(O)O)cc1)C(=O)NC(C)c1ccc(OCC2CCCCC2)c(C(N)=O)c1` (single isomer, unassigned) [Example 63a, [S-(R*,R*)]- or [S-(R*,S*)]-[(4-{2-Acetylamino-2-[1-(3-carbamoyl-4-cyclohexylmethoxy-phenyl)-ethylcarbamoyl]-ethyl]-phenyl)-difluoro-methyl]-phosphonic acid], in the assay with Swiss 3T3 cells, the “3H-Thymidine Uptake, % Uptake Relative to Control” value is on record as 73%. Also, the IC50 at Src SH2 worked out at 0.3 µM; at Abl SH2, 2 µM.

Take `CC(=O)N[C@@H](Cc1ccc(C(F)(F)P(=O)(O)OCOC(=O)C(C)(C)C)cc1)C(=O)NC(C)c1ccc(OCC2CCCCC2)c(C(N)=O)c1` (single isomer, unassigned) [Example 77, [S-(R*,R*)]- or [S-(R*,S*)]-2,2-Dimethyl-propionic acid {[(4-{2-Acetylamino-2-[1-(3-carbamoyl-4-cyclohexylmethoxy-phenyl)-ethylcarbamoyl]-ethyl}-phenyl)-difluoro-methyl} hydroxy-phosphinoyloxymethyl ester]: in the assay with Swiss 3T3 cells, the “3H-Thymidine Uptake, % Uptake Relative to Control” value is listed as 34%.

Take `CC[C@H](NC(=O)[C@H](Cc1ccc(C(F)(F)P(=O)(O)OCOC(=O)C(C)(C)C)cc1)NC(C)=O)C(=O)N(C)CCCC1CCCCC1` [Example 55, [S-(R*,R*)]-2,2-Dimethyl-propionic acid {[4-(2-acetylamino-2-{1-[(3-cyclohexyl-propyl)-methyl-carbamoyl]-propylcarbamoyl}-ethyl)-phenyl]-difluoro-methyl}-hydroxy-phosphinoyloxymethyl ester]: in the assay on Swiss 3T3 cells, the “3H-Thymidine Uptake, % Uptake Relative to Control” value turned out to be 61%. Moreover, the IC50 at Src SH2 and on Abl SH2 was over 100 µM throughout.
